Measured values reported in patent publication US6686391B2, “N-chlorophenylcarbamate and N-chlorophenylthiocarbamate compositions” (University of Arizona Foundation, priority 1995, dated 2004).
Values after ≈ are worked out from the molar mass of the structure shown. Like-named read-outs stand apart in the source and are kept apart here.

Assays:
[1] = system: HIV replication in monocytes (chronic HIV-1 infected promonocytic cells U1); experiment: HIV chronic study, chronically HIV-1 infected promonocytic U1 cells; format: cell-based
Protocol: (§1) Chronic HIV-1 infected promonocytic cells U1 were derived from an acute HIV-1 infection of the promonocytic cell line, U937. The chronic HIV-1 infected T-cells, ACH-2, were derived from an acute HIV-1 infection of the T cell line, A3.01.
(§2) These cells were cultured in medium and the phorbol ester, PMA. PMA causes the cells (both U1 and ACH-2) to be activated and not divide but it also causes the U-1 cells to differentiate. […] Cell viability was measured when these cell lines were treated with the test compounds.
(§3) Both cell lines constituitively produce a small amount of HIV-1. ACH-2 cell lines tend to produce more HIV-1 than U1 cells as shown by p-24 ELISA. When either cell line is cultured in the presence of PMA there is an increase in the quantity of HIV-1 produced as measured by the p-24 antigen ELISA.
(§4) In addition, the number of […] positive HIV mRNA expressing cells per microscopic field is measured. Comparisons can be made from these numbers since the same number of cells were adhered to the glass slides for each drug concentration (10×10^6 cells/ml).

HIV = experiment: Acute HIV study, in vitro acute model; format: cell-based; details: in vitro acute model for HIV
Protocol: In an in vitro acute model for HIV chloropropham inhibited viral replication by 47% at 10 μg/ml and AZT inhibited viral replication by 98% at 1 μg/ml. The therapeutic index for chloropropham is 2.5 compared to 12,500 for AZT. The therapeutic index is ratio of toxic dose of the drug to the efficacious dose of the drug.

herpes [2] = experiment: In vivo herpes screening test; set-up: species or system mice
Protocol: In an in vivo herpes screening test, at a dose of 150 mg/kg dose, 60% of the mice survived with a 10.2 mean death date. The positive control was acyclovir at 75 mg/kg dose; 60% of the mice survived with a mean death date of 17.2 days.

Broncheal Cells = experiment: EC-50 in normal healthy cells, bronchial cells; format: cell-based
breast cells (MX1) = experiment: MTT cell viability test, breast cells; format: cell-based; details: Homo sapiens, 120 h
Protocol: (§5) The following cell culture tests were performed to test the toxicity of N-chlorophenylcarbamates and N-chlorophenylthiocarbamates compounds on colon, breast and lung human tumor cells. The viability of the cells were tested by looking at MTT (3-[4,5-dimethylthiazol-2-yl]-2,5-diphenyltetrazolium bromide) reduction. MTT assay is a well known measure of cell viability.
(§6) The colon tumor cells (HT29 from American Type Culture Collection (ATCC)) and the breast cells (MX1 from cell lines from ATCC) were cultured in Eagle's Minimal Essential Medium with 10% fetal bovine serum. The lung tumor cells (A549 from ATCC cell lines) were cultured in Ham's F12 medium with 10% fetal bovine serum.
(§7) The tumor cells were passaged and seeded into culture flasks at the desired cell densities. The culture medium was decanted and the cell sheets were washed twice with phosphate buffered saline (PBS). The cells were trypsinized and triturated prior to seeding the flasks. Unless otherwise indicated the cultures were incubated at 37±1° C. in a humidified atmosphere of 5±1% carbon dioxide in air. The cultures were incubated until they were 50-80% confluent.
(§8) The cells were subcultured when the flasks were subconfluent. The medium was aspired from the flasks and the cell sheets rinsed twice with PBS. Next, the Trypsin Solution was added to each flask to cover the cell sheet. The Trypsin Solution was removed after 30-60 seconds and the flasks were incubated at room temperature for two to six minutes. When 90% of the cells became dislodged, growth medium was added. The cells were removed by trituration and transferred to a sterile centrifuge tube. The concentration of cells in the suspension was determined, and an appropriate dilution was made to obtain a density of 5000 cells/ml. The cells were subcultured into the designated wells of the 96-well bioassay plates (200 microliter cell suspension per well). PBS was added to all the remaining wells to maintain humidity. The plates were then incubated overnight before test article treatment.
(§9) Each dose of test article was tested by treating quadruplicate wells of cultures with 100 microliter of each dilution. Those wells designated as solvent controls received an additional 100 microliters of methanol control; negative controls wells received an additional 100 microliters of treatment medium. PBS was added to the remaining wells not treated with test article or medium. The plates were then incubated for approximately 5 days. […]
(§10) The absorbance at 550 nm (OD550) of each well was measured with a Molecular Devices (Menlo Park, Calif.) VMax plate reader.
(§11) The mean OD550 of the solvent control wells and that of each test article dilution, and that of each of the blank wells and the positive control were calculated. […]

Kerotinoyle Cells = experiment: EC-50 in normal healthy cells, keratinocytes; format: cell-based; details: Keratinocyte
Fibroblasts = experiment: EC-50 in normal healthy cells, fibroblasts; format: cell-based; details: Fibroblast
colon tumor cells (HT29) = experiment: MTT cell viability test, colon tumor cells; format: cell-based; details: Homo sapiens, HT-29, 120 h
Protocol: as §5, §6, §7, §8, §9, §10, §11

lung tumor cells (A549) = experiment: MTT cell viability test, lung tumor cells; format: cell-based; details: Homo sapiens, A549, 120 h
Protocol: as §5, §6, §7, §8, §9, §10, §11

[3] = doses from 50-400 mg/kg; 1958, 1959, 1972; cited from earlier work
leukemia (P388) = experiment: In vivo mouse model for leukemia
murine melanoma (B16) = experiment: In vivo mouse model for murine melanoma
breast cancer (MXI) = experiment: In vivo mouse model for breast cancer
influenza [4] = experiment: In vivo model for influenza
Rhinovirus = experiment: In vivo Rhinovirus screening test
influenza [5] = experiment: In vitro model for influenza; format: cell-based
[6] = system: breast, colon, non-small cell lung and ovarian tumors; experiment: In vitro human tumor colony forming units test, continuous exposure; format: cell-based
Protocol: Solid tumors removed from patients are minced into 2 to 5 mm fragments and immediately placed in McCoy's Medium 5A plus 10% heat inactivated newborn calf serum plus 1% penicillin/streptomycin. Within 4 hours, these solids tumors are mechanically disassociated with scissors, forced through No. 100 stainless steel mesh, through 25 gauge needles, and then washed with McCoy's medium as described above. Ascitic, pleural, pericardial fluids and bone marrow are obtained by standard techniques. The fluid or marrow is placed in sterile containers containing 10 units of preservative free heparin per ml. of malignant fluid or marrow. After centrifugation at 150×g for 10 minutes, the cells are harvested and washed with McCoy's medium plus 10% heat inactivated calf serum. The viability of cell suspensions is determined on a hemocytometer with trypan blue.
Cells to be cloned are suspended in 0.3% agar in enriched CMRL1066 supplemented with 15% heat inactivated horse serum, penicillin (100 units/ml), streptomycin (2 mg/ml), glutamine (2 mM), insulin (3 units/ml), asparagine (0.6 mg/ml), and HEPES buffer (2 mM). For the continuous exposure test each compound is added to the above mixture. […] If there is <30% colonies in the positive control when compared to the untreated control, the test is evaluated.

herpes [7] = experiment: In vitro herpes screening model; format: cell-based
[8] = system: HIV replication in T-cells (chronic HIV-1 infected T-cells, ACH-2); experiment: HIV chronic study, chronically HIV-1 infected ACH-2 T-cells; format: cell-based; details: chronic HIV model, ACH-2 cells
Protocol: as §1, §2, §3, §4

[9] = 75 mg/kg dose, positive control

Q: Which results are given for Cc1cn([C@H]2C[C@H](N=[N+]=[N-])[C@@H](CO)O2)c(=O)[nH]c1=O [AZT, reference compound]?
A: action in the HIV chronic model [1]: no action; inhibition of viral replication (HIV; 1 μg/ml): 98%

Q: For Nc1nc2c(ncn2COCCO)c(=O)[nH]1 [acyclovir, reference compound], which mean death date (herpes [2]; [9]) is on record?
A: 17.2 days

Q: What about the mice survived (herpes [2]; [9]) of the same molecule?
A: 60%

Q: With COc1cccc2c1C(=O)c1c(O)c3c(c(O)c1C2=O)C[C@@](O)(C(=O)CO)C[C@@H]3O[C@H]1C[C@H](N)[C@H](O)[C@H](C)O1 [Adriamycin, doxorubicin (adriamycin), reference compound] as the molecule, how does the EC50 (Broncheal Cells; normal healthy cells, first value, read-out: EC-50 Broncheal Cells) read?
A: 0.015 µg/mL (≈ 0.0276 µM)

Q: And the EC50 (Broncheal Cells; normal healthy cells, second value, read-out: EC-50 Broncheal Cells)?
A: 0.002 µg/mL (≈ 0.00368 µM)

Q: What about the EC50 (breast cells (MX1); MTT, 5 day incubation, first MX1 column, read-out: EC-50 Result MX1) of the same molecule?
A: 0.02 µg/mL (≈ 0.0368 µM)

Q: What about the EC50 (breast cells (MX1); MTT, 5 day incubation, second MX1 column, read-out: EC-50 Result MX1) of the same molecule?
A: 0.001 µg/mL (≈ 0.00184 µM)

Q: And the EC50 (Kerotinoyle Cells; normal healthy cells, first value, read-out: EC-50 Kerotinoyle Cells)?
A: 0.0035 µg/mL (≈ 0.00644 µM)

Q: And the EC50 (Kerotinoyle Cells; normal healthy cells, second value, read-out: EC-50 Kerotinoyle Cells)?
A: 0.0093 µg/mL (≈ 0.0171 µM)

Q: What about the EC50 (Fibroblasts; normal healthy cells, first value, read-out: EC-50 Fibroblasts) of the same molecule?
A: 0.065 µg/mL (≈ 0.12 µM)

Q: What about the EC50 (Fibroblasts; normal healthy cells, second value, read-out: EC-50 Fibroblasts) of the same molecule?
A: 0.1 µg/mL (≈ 0.184 µM)

Q: What about the EC50 (colon tumor cells (HT29); MTT, 5 day incubation, first HT29 column, read-out: EC-50 Result HT29) of the same molecule?
A: 0.003 µg/mL (≈ 0.00552 µM)

Q: And the EC50 (colon tumor cells (HT29); MTT, 5 day incubation, second HT29 column, read-out: EC-50 Result HT29)?
A: 0.006 µg/mL (≈ 0.011 µM)

Q: What about the EC50 (lung tumor cells (A549); MTT, 5 day incubation, first A549 column, read-out: EC-50 Result A549) of the same molecule?
A: 0.03 µg/mL (≈ 0.0552 µM)

Q: What about the EC50 (lung tumor cells (A549); MTT, 5 day incubation, second A549 column, read-out: EC-50 Result A549) of the same molecule?
A: 0.009 µg/mL (≈ 0.0166 µM)

Q: With CC(C)OC(=O)Nc1cccc(Cl)c1 [Chloropropham, (3-chlorophenyl)carbamic acid 1-methylethyl ester] as the molecule, how does the “activity in National Cancer Institute tests” value [3] read?
A: no activity

Q: And the “suppression of HIV replication in monocytes” value ([1]; chronic HIV model, U1 cells)?
A: 79%

Q: What about the inhibition at 10 µg/mL (HIV; Human immunodeficiency virus 1, 10 μg/ml, read-out: inhibition of viral replication) of the same molecule?
A: 47%

Q: What about the EC50 (Broncheal Cells; read-out: EC-50 Broncheal Cells, normal healthy cells, second value) of the same molecule?
A: > 15.2 µg/mL

Q: What about the “activity in in vivo mouse model for leukemia (P388)” value (leukemia (P388)) of the same molecule?
A: no activity

Q: And the “activity in in vivo mouse model for murine melanoma (B16)” value (murine melanoma (B16))?
A: no activity

Q: What about the “activity in in vivo mouse model for breast cancer (MXI)” value (breast cancer (MXI)) of the same molecule?
A: no activity

Q: What about the “activity in in vivo model for influenza” value (influenza [4]) of the same molecule?
A: did not show activity

Q: And the EC50 (breast cells (MX1); read-out: EC-50 Result MX1, MTT, 5 day incubation, first MX1 column)?
A: 91.8 µg/mL (≈ 430 µM)

Q: What about the EC50 (breast cells (MX1); read-out: EC-50 Result MX1, MTT, 5 day incubation, second MX1 column) of the same molecule?
A: 108 µg/mL (≈ 505 µM)

Q: And the EC50 (Kerotinoyle Cells; read-out: EC-50 Kerotinoyle Cells, normal healthy cells, first value)?
A: 3.9 µg/mL (≈ 18.3 µM)

Q: What about the EC50 (Kerotinoyle Cells; read-out: EC-50 Kerotinoyle Cells, normal healthy cells, second value) of the same molecule?
A: 13 µg/mL (≈ 60.8 µM)

Q: What about the “activity in in vivo Rhinovirus screening test” value (Rhinovirus) of the same molecule?
A: Nor was it active

Q: What about the EC50 (Fibroblasts; read-out: EC-50 Fibroblasts, normal healthy cells, first value) of the same molecule?
A: > 152 µg/mL

Q: And the EC50 (Fibroblasts; read-out: EC-50 Fibroblasts, normal healthy cells, second value)?
A: 64.2 µg/mL (≈ 300 µM)

Q: What about the “activity in in vitro model for influenza” value (influenza [5]) of the same molecule?
A: did not show activity

Q: What about the EC50 (colon tumor cells (HT29); read-out: EC-50 Result HT29, MTT, 5 day incubation, first HT29 column) of the same molecule?
A: 13.3 µg/mL (≈ 62.2 µM)

Q: What about the EC50 (colon tumor cells (HT29); read-out: EC-50 Result HT29, MTT, 5 day incubation, second HT29 column) of the same molecule?
A: 11.4 µg/mL (≈ 53.4 µM)

Q: And the “effective against tumors (fraction)” value ([6]; 100 μg/ml, continuous exposure, breast, colon, non-small cell lung and ovarian tumors)?
A: 6/7

Q: And the effectiveness against tumors ([6]; 1 and 10.0 μg/ml)?
A: not effective

Q: And the “activity in in vitro herpes screening model” value (herpes [7])?
A: Nor was it active

Q: And the mean death date (herpes [2]; 150 mg/kg dose)?
A: 10.2

Q: And the mice survived (herpes [2]; 150 mg/kg dose)?
A: 60%

Q: And the “increase in HIV replication in T-cells” value [8]?
A: 101%

Q: What about the EC50 (lung tumor cells (A549); read-out: EC-50 Result A549, MTT, 5 day incubation, first A549 column) of the same molecule?
A: 12.6 µg/mL (≈ 59 µM)

Q: What about the EC50 (lung tumor cells (A549); read-out: EC-50 Result A549, MTT, 5 day incubation, second A549 column) of the same molecule?
A: 92.5 µg/mL (≈ 433 µM)
